In publication PMC6753678, “Fueling Open Innovation for Malaria Transmission-Blocking Drugs: Hundreds of Molecules Targeting Early Parasite Mosquito Stages” (Frontiers in Microbiology, 2019):
Like-named read-outs stand apart in the source and are kept apart here.

Legend:
HepG2 cells [1] = details: cited from earlier work
HepG2 cells [2] = test: HepG2 cytotoxicity assay
How it was run: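 HepG2 cells, 2,500 per well in MEM with 10% FBS and 1% NEAA, exposed to compounds for 48 h at 37°C, 5% CO2. Viability read by fluorescence; percent inhibition relative to 50 μM doxorubicin and DMSO controls.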

[3] = test system: P. falciparum late stage (stages IV-V) gametocytes; parameters: method as in Almela et al 2016; details: ref Almela et al 2016, read-out: Pf GCT ATP IC50, cited from earlier work
[4] = test system: P. falciparum female gametocytes; parameters: method as in Miguel-Blanco et al 2017; details: ref Miguel-Blanco et al 2017, read-out: Pf FGAA IC50, cited from earlier work
[5] = test system: P. falciparum late stage (stages IV-V) gametocytes; test: P. falciparum late stage gametocyte ATP depletion assay (Pf GC-ATP); details: 1: YES; 0: NO
[6] = test system: P. falciparum female gametocytes; test: P. falciparum female gametogenesis assay (Pf FGAA); details: 1: YES; 0: NO
[7] = value reported with the Pf GCT ATP screen, ref Almela et al 2016
[8] = HepG2 cytotoxicity unified across the three screens
[9] = value reported with the Pf FGAA screen, ref Miguel-Blanco et al 2017

SMILES	HepG2 cytoxicity (HepG2 cells [1]; [7]) [µM]	Unified cytotox (HepG2 cells [2]; [8]) [µM]	IC50 ([3]; TCAMS screen comparison) [nM]	IC50 ([4]; TCAMS screen comparison) [nM]	Is compound selective in assay? Pf GC-ATP active? [5]	Is compound selective in assay? Pf FGAA active? [6]	HepG2 cytoxicity (HepG2 cells [1]; [9]) [µM]	HepG2 cytoxicity (Pf GCT ATP screen) (HepG2 cells [1]; HepG2, ref Almela et al 2016) [µM]	HepG2 cytoxicity (Pf FGAA screen) (HepG2 cells [1]; HepG2, ref Miguel-Blanco et al 2017) [µM]	Unified cytotox (HepG2 cells [2]; HepG2 values of the three screens unified) [µM]	IC50 [3] [nM]	IC50 [4] [nM]
COc1ccc(CNC(=O)c2cnc3c(O)cccc3c2Nc2cccc(NC(=O)c3ccc(Cl)c(Cl)c3)c2)cc1.O=C(O)C(F)(F)F [TCMDC-139607]	<1.56	1.56	680	1600	0 (0: NO)	0 (0: NO)	–	–	–	–	–	–
C=CCOc1ccc2ccccc2c1CNCCCCCCNCc1c(OCC=C)ccc2ccccc12.CS(=O)(=O)O [TCMDC-137340]	<1.56	1.93	250	700	0 (0: NO)	0 (0: NO)	1.93	–	–	–	–	–
Fc1ccc2[nH]c(-c3cccc(-c4ccc(CN5CCC(CCN6CCCCC6)CC5)cc4)c3)nc2c1.O=C(O)C(F)(F)F [TCMDC-133940]	5.2	4.99	430	1880	1 (1: YES)	0 (0: NO)	4.79	–	–	–	–	–
COc1cc2nc(N3CCC(CCCC4CCNCC4)CC3)nc(NCc3ccccn3)c2cc1OC.O=C(O)C(F)(F)F [TCMDC-138494]	10.59	14.55	400	6860	1 (1: YES)	0 (0: NO)	18.51	–	–	–	–	–
CN1CCN(CCCN(Cc2cccc(-c3ccc(CNCCc4ccccc4)cc3)c2)C(=O)c2cccs2)CC1.O=C(O)C(F)(F)F [TCMDC-140568]	5.6	5.79	890	1710	0 (0: NO)	0 (0: NO)	5.98	–	–	–	–	–
COc1cc(NCCCNCc2cn(Cc3cc(Br)cc(Br)c3)c3ccccc23)nc2ccccc12 [TCMDC-140677]	6.13	5.03	590	860	0 (0: NO)	0 (0: NO)	3.94	–	–	–	–	–
N=C(/N=C(/NCCCCCCN/C(=N\C(=N)Nc1ccc(Cl)cc1)N1CCCCC1)N1CCCCC1)Nc1ccc(Cl)cc1 [TCMDC-131811]	22.9	33.57	380	7870	1 (1: YES)	0 (0: NO)	44.23	–	–	–	–	–
CS(=O)(=O)O.FC(F)(F)COc1ccc2ccccc2c1CCNCCCCNCCc1c(OCC(F)(F)F)ccc2ccccc12 [TCMDC-137317]	3.3	2.70	1370	1010	0 (0: NO)	0 (0: NO)	2.09	–	–	–	–	–
COc1cccc(OC)c1CN1CCC(N(C)CCCCCCCCN2CCC(OC(=O)Nc3ccccc3-c3ccccc3)CC2)CC1 [TCMDC-134684]	3.4	2.66	1040	2260	0 (0: NO)	0 (0: NO)	1.93	–	–	–	–	–
COc1cc2c(cc1CCNCCCCNCCc1cc3c(cc1OC)CCCC3)CCCC2.CS(=O)(=O)O [TCMDC-137319]	<1.56	1.86	80	890	1 (1: YES)	0 (0: NO)	1.86	–	–	–	–	–
CCCCN(CCCC)/C(=N/C(=N)NCc1ccc(Cl)c(Cl)c1)NCCCCCCN/C(=N\C(=N)NCc1ccc(Cl)c(Cl)c1)N(CCCC)CCCC [TCMDC-131821]	12.4	13.18	620	2510	1 (1: YES)	0 (0: NO)	13.96	–	–	–	–	–
CC(C)(C)c1ccc(CN2CCC(CNC(=O)c3cc(-c4ccccc4C(F)(F)F)cs3)C2)cc1.O=C(O)C(F)(F)F (stereo not shown) [TCMDC-134441]	6.4	8.09	310	690	1 (1: YES)	1 (1: YES)	9.77	–	–	–	–	–
COc1cc2ccccc2cc1CCNCCCCNCCc1cc2ccccc2cc1OC.CS(=O)(=O)O [TCMDC-137944]	3.39	2.53	110	620	1 (1: YES)	0 (0: NO)	1.66	–	–	–	–	–
CCCCOc1ccc(CNCCCCCCNCc2ccc(OCCCC)c3ccccc23)c2ccccc12.CS(=O)(=O)O [TCMDC-137281]	3.04	2.67	2800	400	0 (0: NO)	0 (0: NO)	2.29	–	–	–	–	–
CCCCOc1c(CCNCCCCNCCc2cc(OC)c3ccccc3c2OCCCC)cc(OC)c2ccccc12.CS(=O)(=O)O [TCMDC-137848]	–	–	–	–	1 (1: YES)	0 (0: NO)	–	3.1	1.97	2.54	80	610
C[C@H](Cc1ccc(OCCCCCOc2ccc(C[C@@H](C)NC[C@H](O)c3cccc(Cl)c3)cc2)cc1)NC[C@H](O)c1cccc(Cl)c1.Cl [TCMDC-131563]	1.79	1.95	550	960	0 (0: NO)	0 (0: NO)	2.11	–	–	–	–	–
CC(C)(C)c1ccc(CN2CCC(CNC(=O)c3cc(-c4ccccc4Cl)cs3)C2)cc1.O=C(O)C(F)(F)F (stereo not shown) [TCMDC-134445]	8.3	7.23	690	1010	1 (1: YES)	0 (0: NO)	6.17	–	–	–	–	–
CN1CCN(CCCNCc2cccc(Nc3nccc(Nc4ccc(Oc5ccccc5)cc4)n3)c2)CC1 [TCMDC-138616]	5.17	4.92	320	980	1 (1: YES)	0 (0: NO)	4.68	–	–	–	–	–
COc1ccc2cc(CNCCCCCCNCc3ccc4cc(OC)ccc4c3)ccc2c1.CS(=O)(=O)O [TCMDC-137797]	3	2.27	670	590	0 (0: NO)	0 (0: NO)	1.55	–	–	–	–	–
COc1ccc(C[C@H](N)C(=O)N[C@H]2[C@@H](O)[C@H](n3cnc4c(N(C)C)ncnc43)O[C@@H]2CO)cc1 [TCMDC-123493]	2.95	2.37	560	290	0 (0: NO)	0 (0: NO)	1.80	–	–	–	–	–
Cc1cccc2nc(-c3ccc(-c4ccc(CNCc5ccc(CN)cc5)cc4)s3)[nH]c12.O=C(O)C(F)(F)F [TCMDC-132809]	24	19.40	860	470	1 (1: YES)	1 (1: YES)	14.79	–	–	–	–	–
CS(=O)(=O)O.CSc1ccc2ccccc2c1CCNCCCCNCCc1c(SC)ccc2ccccc12 [TCMDC-137763]	1.65	1.73	230	1010	0 (0: NO)	0 (0: NO)	1.82	–	–	–	–	–
Cc1ccccc1OCC(O)CNC1CCC(NCC(O)COc2ccccc2C)CC1 (stereo not shown) [TCMDC-125142]	3.78	3.93	140	1110	1 (1: YES)	0 (0: NO)	4.07	–	–	–	–	–
